Where two headings read alike, the source gives them in different places.
Legend:
[1] = target: T1, human ETB receptors expressed in CHO cells (Homo sapiens, UniProt P24530); assay: In vitro ETB receptor binding, [125I]-labeled ET-3 displacement; details: incubation time 30 minutes, not steady-state; read-out: Ki ± SE, ETB
T1 construct: expressed in transfected cells; host or cells: CHO cells (membranes)
T1 sequence (P24530 27-442): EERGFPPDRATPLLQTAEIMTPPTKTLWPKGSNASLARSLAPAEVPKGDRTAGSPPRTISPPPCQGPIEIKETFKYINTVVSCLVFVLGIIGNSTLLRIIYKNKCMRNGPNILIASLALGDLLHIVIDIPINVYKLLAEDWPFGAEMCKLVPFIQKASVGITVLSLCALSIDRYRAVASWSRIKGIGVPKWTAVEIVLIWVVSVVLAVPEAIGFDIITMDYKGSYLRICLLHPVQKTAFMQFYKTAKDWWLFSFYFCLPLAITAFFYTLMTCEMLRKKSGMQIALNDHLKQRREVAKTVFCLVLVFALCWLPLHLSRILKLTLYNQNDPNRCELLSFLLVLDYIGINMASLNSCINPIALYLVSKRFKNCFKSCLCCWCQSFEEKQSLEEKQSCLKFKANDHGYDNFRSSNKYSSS
Experimental: (§1) The test compounds are dissolved at 10^−2M in methanol: Cremophor EL® 100:1 and diluted in deionized water to concentrations of […] to 10^−6 M. Binding reactions are initiated by addition of [^125I]-labeled ET-1 or [^125I]-labeled ET-3 for the ETA and ETB receptors, respectively, after 2 minutes preincubation of the membranes in the presence of Metabolite B or Metabolite C. The specific radioligand binding to each receptor is calculated as the difference between total binding and non-specific binding, determined in the presence of an excess of unlabeled ET-1. IC; values are determined by nonlinear curve fitting from experiments performed with 3 concentrations of test compound.

[2] = target: T2, human ETA receptors expressed in CHO cells (Homo sapiens, UniProt P25101); assay: In vitro ETA receptor binding, [125I]-labeled ET-1 displacement; details: incubation time 30 minutes; for affinity for the ETA receptor relative to that for the ETB receptor: CHO cells; for Ki: not steady-state, read-out: Ki ± SE, ETA
T2 construct: expressed in transfected cells; host or cells: CHO cells (membranes)
T2 sequence (P25101 21-427): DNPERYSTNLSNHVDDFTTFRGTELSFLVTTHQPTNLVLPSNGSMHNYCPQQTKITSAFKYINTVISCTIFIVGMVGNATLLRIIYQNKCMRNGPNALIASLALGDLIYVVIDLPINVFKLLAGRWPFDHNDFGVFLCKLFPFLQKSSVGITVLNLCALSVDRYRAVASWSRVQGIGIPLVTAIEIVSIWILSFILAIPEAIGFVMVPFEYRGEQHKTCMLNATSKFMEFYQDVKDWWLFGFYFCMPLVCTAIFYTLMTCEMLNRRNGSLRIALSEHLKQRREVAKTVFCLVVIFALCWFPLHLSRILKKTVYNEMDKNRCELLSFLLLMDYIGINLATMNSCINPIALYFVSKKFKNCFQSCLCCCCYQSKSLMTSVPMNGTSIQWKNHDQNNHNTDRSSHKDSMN
Experimental: as §1

[3] = In vivo excretion in dogs; details: dog, after single 3 mg/kg oral dose of ambrisentan
[4] = Biliary excretion in dogs; details: 10 mg/kg intraduodenal, eight hours post-administration
CYP isoenzymes = assay: Reaction phenotyping with microsomes expressing single CYP isoenzymes; assay type: in vitro ADME
Text: (§2) Reaction phenotyping using microsomes expressing single CYP isoenzymes or uridine diphosphate glucuronosyl transferase (UGT) isoenzymes are used to identity those enzymes that are sufficient to metabolize ambrisentan in vitro.

[5] = Isolated perfused rat liver model; assay type: in vitro ADME, male Wistar rats; details: for cumulative excretion of total radioactivity in the bile: six hours; for decrease of total radioactivity in the perfusate: six hours post-dose
Experimental: The metabolic pathways of ambrisentan in male Wistar rats are investigated using the isolated perfused rat liver model. […] The livers are removed from 2 animals in each dose group and perfused in a recirculating system for 6 hours and the metabolite pattern of the perfusion medium and bile determined.

[6] = In vitro metabolism in liver microsomes (phase I); assay type: in vitro ADME; details: rat, dog, and human liver microsomes
[7] = In vitro metabolism in dog hepatocytes; details: 24-hour period
[8] = cited from earlier work
[9] = Biliary excretion and enterohepatic circulation in rats; assay type: in vivo, male rats
Experimental: Bile and urine are collected over a 24-hour period. […] To assess enterohepatic circulation, a second set of rats (acceptor rats) is intraduodenally dosed with pooled bile (0-12 hour period) from the first set of rats (donor rats), and bile and urine are again collected over a 24-hour period. […] The metabolite patterns in bile from donor and acceptor rats are similar.

[10] = In vitro metabolism in human hepatocytes; assay type: in vitro ADME; details: 24-hour period
ETA receptor = target: T3, ETA receptor (Homo sapiens, UniProt P25101); details: human ventricular tissue; cited from earlier work
T3 construct: Studies performed in human ventricular tissue with ambrisentan; from tissue; host or cells: human ventricular tissue
T3 sequence (P25101 21-427): T2 sequence (P25101 21-427)

[11] = In vivo excretion in rats; details: ADME studies
[12] = In vitro metabolism in rat hepatocytes; assay type: in vitro ADME; details: 24-hour period
[13] = system: uridine diphosphate glucuronosyl transferase (UGT) isoenzymes; assay: Reaction phenotyping with microsomes expressing single UGT isoenzymes; assay type: in vitro ADME
Text: as §2

[14] = dog, in vivo, po, 3 mg/kg
[15] = both, dog, in vivo, 10 mg/kg
[16] = dog, human, 24 h
[17] = donor rats, intraduodenal, within 24 hours

## Cc1cc(C)nc(OC(C(=O)O)C(O)(c2ccccc2)c2ccccc2)n1 (racemic) [Metabolite C]
[1]
  Ki: 556 ± 43.6 nM
[2]
  affinity for the ETA receptor relative to that for the ETB receptor: about 100 times
  Ki: 22.2 ± 4.2 nM

## Cc1cc(C)nc(O)n1 [4,6-dimethyl-2hydroxypyrimidine, 4,6-dimethyl-2-hydroxypyrimidine]
[3]
  metabolite pattern in excreta: main metabolite in urine

## COC(c1ccccc1)(c1ccccc1)[C@H](Oc1nc(C)cc(C)n1)C(=O)O [Ambrisentan, (S)-2-[(4,6-dimethylpyrimidin-2-yl)oxy]-3-methoxy-3,3-diphenylpropionic acid]
[4]; female dogs
  total radioactivity excreted into the bile: 47%
[4]; male dogs
  total radioactivity excreted into the bile: 54%
CYP isoenzymes
  CYP isoenzymes that oxidatively metabolize the compound: CYP3A4, CYP2C19, and CYP3A5
[5]; 3 mg/kg dose
  cumulative excretion of total radioactivity in the bile: 25%
  decrease of total radioactivity in the perfusate: 55%
[5]; 10 mg/kg dose
  cumulative excretion of total radioactivity in the bile: 30%
  decrease of total radioactivity in the perfusate: 55%
[5]; 30 mg/kg dose
  cumulative excretion of total radioactivity in the bile: 31%
  decrease of total radioactivity in the perfusate: 45%
[6]
  turnover of parent compound to hydroxylated metabolite (Metabolite B): 3-4%
[7]
  radiolabeled ambrisentan metabolized by phase II pathway: 25%
[8]; all patients, after 12 weeks of treatment
  mean 6MWD, mean increase from baseline: 36 meters
[8]; phase II trials, all four dose groups
  primary efficacy endpoint (exercise capacity measured by 6MWD): statistically significant and clinically meaningful increase
[9]; acceptor rats dosed intraduodenally with pooled donor bile, 24-hour period
  total radioactivity recovered in the bile of acceptor rats: 76.5-94%
[9]; [17]
  total radioactivity recovered from the bile: 94.8%
  total radioactivity recovered from the urine: 1.5%
[9]; rats, biliary excretion study
  share of parent compound among metabolic species in bile: 95%
[10]
  radiolabeled ambrisentan metabolized by phase II pathway: 21%
ETA receptor
  affinity for the ETA receptor: high affinity (low Ki)
[2]
  Ki: 0.63 ± 0.2 nM
[11]
  share of parent compound among metabolic species in feces: ca. 80%
[12]
  metabolized by phase II pathway: 15%
[13]
  UGT isoenzymes that glucuronidate the compound: UGT1A9S, UGT2B7S, and UGT1A3S

## COC(c1ccccc1)(c1ccccc1)[C@H](Oc1nc(C)cc(C)n1)C(=O)O[C@@H]1O[C@H](C(=O)O)[C@@H](O)[C@H](O)[C@H]1O [Metabolite A, (2S,3S,4S,5R,6S)-6-((S)-2-(4,6-Dimethylpyrimidin-2-yloxy)-3-methoxy-3,3-diphenylpropanoyloxy)-3,4,5-trihydroxytetrahydro-2H-pyran-2-carboxylic acid]
[14]
  metabolite pattern in excreta: main metabolite in feces
[15]
  share of the total radioactivity in bile: 77-81%

## COC(c1ccccc1)(c1ccccc1)[C@H](Oc1nc(C)cc(CO)n1)C(=O)O [Metabolite B, (S)-2-(4-(Hydroxymethyl)-6-methylpyrimidin-2-yloxy)-3-methoxy-3,3-diphenylpropanoic acid]
[1]
  Ki: 4100 ± 322 nM
[16]
  amount of hydroxylated metabolite detected: < 1%
[2]
  affinity for the ETA receptor relative to that for the ETB receptor: about 100 times
  Ki: 40.3 ± 6.1 nM
